The supplement of paper PMC10307832

Experiments:
Test in all cases: relative viability (nuclei count vs DMSO), 5 days (fraction); higher = more cells survive
[1] = compound: C[C@]1(O)C[C@@H](c2nc(-c3ccc4ccc(-c5ccccc5)nc4c3)c3c(N)nccn32)C1 [Linsitinib] + C[C@@H](Oc1cc(-c2cnn(C3CCNCC3)c2)cnc1N)c1c(Cl)ccc(F)c1Cl [Crizotinib] (partner 1 µM)
Method in brief: (§1)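 Each reported value is a median over duplicate plates. It expresses relative viability: treated-well nuclei count divided by vehicle-well nuclei count. Lung cancer cell lines in 1536-well plates were dosed by pin tool a day after seeding, alone with one drug or with a fixed anchor-drug dose plus five library-drug doses (not always all listed) in √10 steps, and nuclei were counted after 5 days.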

[2] = compound: C[C@]1(O)C[C@@H](c2nc(-c3ccc4ccc(-c5ccccc5)nc4c3)c3c(N)nccn32)C1 [Linsitinib] + O=C(c1cc(Cc2n[nH]c(=O)c3ccccc23)ccc1F)N1CCN(C(=O)C2CC2)CC1 [Olaparib] (partner 8 µM)
Method in brief: as §1

[3] = compound: Cc1ccc(C(=O)N(CCCN)[C@@H](c2nc3cc(Cl)ccc3c(=O)n2Cc2ccccc2)C(C)C)cc1 [Ispinesib] + COc1cc2c(Oc3ccc(NC(=O)C4(C(=O)Nc5ccc(F)cc5)CC4)cc3F)ccnc2cc1OCCCN1CCOCC1 [Foretinib] (partner 0.25 µM)
Method in brief: as §1

[4] = compound: C[C@]1(O)C[C@@H](c2nc(-c3ccc4ccc(-c5ccccc5)nc4c3)c3c(N)nccn32)C1 [Linsitinib] + CC(=O)Nc1cccc(-n2c(=O)n(C3CC3)c(=O)c3c(Nc4ccc(I)cc4F)n(C)c(=O)c(C)c32)c1 [Trametinib] (partner 0.02 µM)
Method in brief: as §1

Row | Cell Line | relative viability ([1]; first compound 0.01 µM) | relative viability ([1]; first compound 0.03162 µM) | relative viability ([1]; first compound 0.1 µM) | relative viability ([1]; first compound 0.3162 µM) | relative viability ([1]; first compound 1 µM) | relative viability ([2]; first compound 0.01 µM) | relative viability ([2]; first compound 0.03162 µM) | relative viability ([2]; first compound 0.1 µM) | relative viability ([2]; first compound 0.3162 µM) | relative viability ([2]; first compound 1 µM) | relative viability ([3]; first compound 0.001 µM) | relative viability ([3]; first compound 0.003162 µM) | relative viability ([3]; first compound 0.01 µM) | relative viability ([3]; first compound 0.03162 µM) | relative viability ([3]; first compound 0.1 µM) | relative viability ([4]; first compound 0.01 µM) | relative viability ([4]; first compound 0.03162 µM) | relative viability ([4]; first compound 0.1 µM) | relative viability ([4]; first compound 0.3162 µM) | relative viability ([4]; first compound 1 µM)
1 | LOU-NH91 | 0.756 | 0.763 | 0.743 | 0.735 | 0.644 | 0.911 | 0.841 | 0.941 | 0.857 | 0.903 | 0.917 | 0.879 | 0.957 | 0.829 | 0.472 | 0.766 | 0.727 | 0.779 | 0.56 | 0.715
2 | LU99A | 0.591 | 0.716 | 0.605 | 0.432 | 0.462 | 0.3 | 0.195 | 0.266 | – | 0.255 | 0.835 | 0.858 | 0.814 | 0.55 | 0.428 | 0.524 | 0.602 | 0.528 | – | 0.493
3 | LXF-289 | 0.789 | 0.885 | 0.807 | 0.671 | 0.792 | 1.11 | 1.13 | 1.17 | 0.797 | 1.05 | 0.911 | 0.978 | 1.09 | 0.894 | 0.895 | 0.641 | 0.535 | 0.674 | 0.519 | 0.665
4 | NCI-H23 | 0.416 | 0.445 | 0.591 | 0.351 | 0.451 | 0.33 | 0.317 | 0.29 | 0.218 | 0.182 | 1.05 | 1.03 | 1.17 | 0.934 | 0.299 | 0.49 | 0.371 | 0.337 | 0.244 | 0.256
5 | NCI-H322M | 0.912 | 0.879 | 0.961 | 0.753 | 0.855 | 0.746 | 0.875 | 0.87 | 0.772 | 0.798 | 1.09 | 0.994 | 0.957 | 0.498 | 0.43 | 0.513 | 0.548 | 0.571 | 0.531 | 0.473
6 | NCI-H358 | 0.661 | 0.676 | 0.588 | 0.448 | 0.415 | 0.585 | 0.64 | 0.602 | 0.47 | 0.333 | 0.694 | 0.695 | 0.702 | 0.28 | 0.123 | 0.15 | 0.148 | 0.13 | 0.118 | 0.0976
7 | NCI-H441 | 0.872 | 0.902 | 0.76 | 0.552 | 0.579 | 0.515 | 0.667 | 0.487 | 0.399 | 0.435 | 0.926 | 1 | 1.19 | 0.419 | 0.291 | 0.537 | 0.44 | 0.339 | 0.215 | 0.231
8 | NCI-H460 | 0.799 | 0.837 | 0.961 | 0.745 | 0.714 | 0.423 | 0.273 | 0.421 | – | 0.332 | 0.901 | 0.995 | 1.13 | 0.879 | 0.0487 | 0.136 | 0.137 | 0.196 | – | 0.0792
9 | NCI-H520 | 0.844 | 0.615 | 0.953 | – | 0.817 | 0.349 | 0.395 | 0.344 | – | 0.346 | 0.906 | 0.832 | 0.866 | 0.379 | 0.306 | 0.618 | 0.64 | 0.641 | – | 0.712
10 | NCI-H596 | 0.969 | 1.08 | 0.969 | 0.987 | 1.04 | 0.736 | 0.614 | 0.677 | 0.66 | 0.604 | 0.87 | 0.859 | 0.791 | 0.795 | 0.434 | 0.705 | 0.715 | 0.74 | 0.827 | 0.732
11 | NCI-H647 | 1.08 | 1.01 | 1.14 | – | 0.987 | 0.472 | 0.509 | 0.735 | 0.442 | 0.48 | 1.26 | 1.32 | 1.41 | 0.703 | 0.191 | 0.478 | 0.509 | 0.436 | 0.338 | 0.351
12 | NCI-H650 | 0.736 | 0.907 | 0.857 | – | 0.703 | 0.381 | 0.537 | 0.405 | – | 0.398 | 1.04 | 1.04 | 1.09 | 0.985 | 0.896 | 1.04 | 1.06 | 0.902 | – | 0.87
13 | NCI-H661 | – | 0.862 | 1.04 | 0.85 | 0.93 | 0.665 | 0.666 | 0.751 | 0.749 | 0.744 | 0.943 | 1.03 | 0.988 | 0.71 | 0.27 | 0.657 | 0.616 | 0.533 | 0.598 | 0.548
14 | NCI-H727 | 0.839 | 0.905 | 0.743 | 0.727 | 0.601 | 0.694 | 0.773 | 0.747 | 0.449 | 0.601 | 0.944 | 0.873 | 0.933 | 0.91 | 0.718 | 0.349 | 0.403 | 0.317 | 0.358 | 0.29
15 | NCI-H838 | 0.787 | 0.704 | 0.826 | 0.673 | 0.64 | 0.754 | 0.722 | 0.73 | 0.482 | 0.533 | 1.07 | 1.14 | 1.16 | 1 | 0.555 | 0.464 | 0.498 | 0.435 | 0.333 | 0.369
